Reference: patent publication US20260297129A1, “PEPTIDES AS SELECTIVE IL-23 RECEPTOR INHIBITORS” (SANOFI, priority 2023, published 2026)
Values after ≈ are worked out from the molar mass of the structure shown. Where two headings read alike, the source gives them in different places. Numbered stars: 1 amine (or outer) side, 2 acyl side, 3 side chain; on linkers, the order of the positions; unused ones are H or OH. Bridge positions count the residues as written; N and C are the ends. Square brackets hold non-standard residues; d marks the D form. Peptide text beside a SMILES is read from it. * marks the point of attachment. Lys(Me,(CH2)4NMe(CH2)5CO) = CN(CCCCCC(=O)[*:3])CCCCN(C)CCCC[C@H](N[*:1])C(=O)[*:2]; Trp(7-Me) = Cc1cccc2c(C[C@H](N)C(=O)O)c[nH]c12; NH(CH2)9CO = O=C(CCCCCCCCCN[*:1])[*:2]; 2Nal = N[C@@H](Cc1ccc2ccccc2c1)C(=O)O; 3Pal = N[C@@H](Cc1cccnc1)C(=O)O; Thp = NC1(C(=O)O)CCOCC1; Me2NCH2CH2 = CN(C)CC*; Aib = CC(C)(N)C(=O)O; Aoc = NCCCCCCCC(=O)O; Sar = CNCC(=O)O

Experiments:
[1] = Protease stability in simulated intestinal fluids (FaSSIF) (Table 7); format: in vitro ADME; conditions: fassif with pancreatin, 37° C.; for remaining at 1 h, 1 µM: 60 min, read-out: Remaining percentage of peptide compound, FaSSIF 60 (min); for remaining at 2 h, 1 µM: 120 min, read-out: Remaining percentage of peptide compound, FaSSIF 120 (min); for remaining at 4 h, 1 µM: 240 min, read-out: Remaining percentage of peptide compound, FaSSIF 240 (min)
Procedure, shortened: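 Percent parent remaining was derived from LC-MS/MS peak areas normalised to time 0, set at 100%. Sampling at 0, 60, 120 and 240 min, quenched in ethanol with 0.1% HCOOH. Final peptide 1 μM, 37° C, SIF containing pancreatin.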

[2] = Chemical stability (relative purity loss) of peptide compounds in buffer formulations (Table 6); format: physicochemical; conditions: 2° C. and 37° C.
Procedure, shortened: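 Compounds at 0.5 mg/mL in 50 mM HCl pH 1.2, 50 mM phosphate pH 6.5 or pH 7.4, each with acetonitrile (3:1), stored 24 hours at 2° C and 37° C. Purity measured by UHPLC-UV before and after. Stability expressed as relative purity loss.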

[3] = Solubility of peptide compounds in buffer formulations (Table 5); format: physicochemical; conditions: target 1 mg/ml
Procedure, shortened: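 Solubility was quantified by UHPLC-UV, comparing 1:10-diluted filtrate peak areas with a DMSO reference standard and correcting for extinction coefficients. Samples were prepared from dried DMSO stock at 1 mg/mL nominal in pH 1.2 HCl, pH 6.5 or pH 7.4 phosphate (50 mM), and agitated 2 h.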

[4] = test system: IL-23 induced STAT3 signaling (IL-23 receptor) in HEK-Blue IL-23 cells; assay: Inhibition of IL-23 induced STAT3 signaling in HEK-Blue IL-23 cells, SEAP reporter (Table 9); format: cell-based; conditions: human IL23 0.25 ng/ml, overnight, read-out: Inhibition of IL-23 induced pSTAT3 (IC50 nM)
Procedure, shortened: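 STAT3-driven SEAP output measured at OD 620–655 nm after 45 min QUANTI-Blue development of supernatant, with dose-response fits. Peptides were given 60 min ahead of 0.25 ng/ml (final) human IL-23, followed by overnight culture at 37 °C; 10,000 HEK-Blue IL-23 cells per well.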

[5] = 50 mM phosphate buffer pH 6.5 + acetonitrile (3:1), read-out: Chemical stability (relative purity loss), Buffer pH 6.5
[6] = 50 mM phosphate buffer pH 7.4 + acetonitrile (3:1), read-out: Chemical stability (relative purity loss), Buffer pH 7.4
[7] = 50 mm hcl + acetonitrile, Buffer pH 1.1 (head; method: 50 mM HCl pH 1.2 + acetonitrile 3:1), read-out: Chemical stability (relative purity loss), Buffer pH 1.1
[8] = Buffer pH 1.1 (head; method: 50 mM HCl pH 1.2), 2 h agitation, read-out: Solubility, Buffer pH 1.1
[9] = aqueous buffer, 50 mM phosphate buffer pH 6.5, 2 h agitation, read-out: Solubility, Buffer pH 6.5
[10] = aqueous buffer, 50 mM phosphate buffer pH 7.4, 2 h agitation, read-out: Solubility, Buffer pH 7.4

| remaining at 1 h, 1 µM [1] | remaining at 2 h, 1 µM [1] | remaining at 4 h, 1 µM [1] | degraded at 24 h [2, 5] | degraded at 24 h [2, 6] | degraded at 24 h [2, 7] | solubility at 2 h [3, 8] | solubility at 2 h [3, 9] | solubility at 2 h [3, 10] | SMILES | IC50 [4] |
| --- | --- | --- | --- | --- | --- | --- | --- | --- | --- | --- |
| 95% | 88% | 85% | 0% | 0% | 3.8% | ≥ 1060 µg/mL | ≥ 980 µg/mL | ≥ 990 µg/mL | CC(=O)NCCCC[C@@H]1NC(=O)[C@H](Cc2c[nH]c3c(C)cccc23)NC(=O)CCCCCN(C)CCCCN(C)CCCC[C@@H](C(=O)N[C@@H](CC(N)=O)C(=O)N[C@@H](Cc2cccnc2)C(=O)N(C)CC(N)=O)NC(=O)C(C)(C)NC(=O)[C@H](Cc2ccc3ccccc3c2)NC(=O)[C@H](Cc2ccc(OCCN(C)C)cc2)NC(=O)C2(CCOCC2)NC1=O [compound 18] ([Trp(7-Me)]K(Ac)[Thp]Y(Me2NCH2CH2)[2Nal][Aib][Lys(Me,(CH2)4NMe(CH2)5CO)]N[3Pal][Sar]-NH2; lactam N-7) | 0.47 nM |
| 79% | 79% | 72% | 0% | 0% | 6.2% | 20 µg/mL (≈ 12.6 µM) | < 10 µg/mL | < 10 µg/mL | Cc1cccc2c(C[C@@H]3NC(=O)CCCCCCCCCNC(=O)CC[C@@H](C(=O)N[C@@H](CC(N)=O)C(=O)N[C@@H](Cc4cccnc4)C(=O)N(C)CC(N)=O)NC(=O)C(C)(C)NC(=O)[C@H](Cc4ccc5ccccc5c4)NC(=O)[C@H](Cc4ccc(OCCN(C)C)cc4)NC(=O)C4(CCOCC4)NC(=O)[C@H](CC(C)C)NC3=O)c[nH]c12 [compound 8] ([NH(CH2)9CO][Trp(7-Me)]L[Thp]Y(Me2NCH2CH2)[2Nal][Aib]EN[3Pal][Sar]-NH2; lactam N-8) | 1.85 nM |
| 74% | 76% | 74% | 0% | 0% | 5.6% | ≥ 1160 µg/mL | 260 µg/mL (≈ 167 µM) | 80 µg/mL (≈ 51.3 µM) | Cc1cccc2c(C[C@@H]3NC(=O)CCCCCCCNC(=O)CC[C@@H](C(=O)N[C@@H](CC(N)=O)C(=O)N[C@@H](Cc4cccnc4)C(=O)N(C)CC(N)=O)NC(=O)C(C)(C)NC(=O)[C@H](Cc4ccc5ccccc5c4)NC(=O)[C@H](Cc4ccc(OCCN(C)C)cc4)NC(=O)C4(CCOCC4)NC(=O)[C@H](CC(C)C)NC3=O)c[nH]c12 [compound 9] ([Aoc][Trp(7-Me)]L[Thp]Y(Me2NCH2CH2)[2Nal][Aib]EN[3Pal][Sar]-NH2; lactam N-8) | 10.8 nM |
